In ChEMBL document CHEMBL5154681, “Small Amphiphilic Peptides: Activity Against a Broad Range of Drug-Resistant Bacteria and Structural Insight into Membranolytic Properties” (J Med Chem, 2022):
In brackets after ≈: the same amount, converted by molar mass. Activity calls are given as the source filed them. The calls are words filed in the database; no cut-off is given here. Square brackets hold non-standard residues; d marks the D form. Peptide text beside a SMILES is read from it. Dip = N[C@H](C(=O)O)C(c1ccccc1)c1ccccc1; 2Nal = N[C@@H](Cc1ccc2ccccc2c1)C(=O)O

Assays:
[1] = test system: Escherichia coli; assay: Antibacterial activity against Escherichia coli ATCC 25922 incubated for 24 hrs by microtiter plate method; assay type: functional
[2] = test system: Erythrocyte; assay: (§1) Hemolytic activity in human RBC assessed as hemolysis incubated for 2 hrs by spectrophotometer analysis; assay type: toxicity, cell-based; settings: erythrocyte, 2 h
[3] = test system: Staphylococcus aureus; assay: Antibacterial activity against Staphylococcus aureus ATCC 29213 incubated for 24 hrs by microtiter plate method; assay type: functional
[4] = test system: Staphylococcus aureus; assay: Antibacterial activity against methicillin resistant Staphylococcus aureus ATCC BAA-1556 incubated for 24 hrs by microtiter plate method; assay type: functional
[5] = test system: Pseudomonas aeruginosa; assay: Antibacterial activity against Pseudomonas aeruginosa ATCC 27883 incubated for 24 hrs by microtiter plate method; assay type: functional
[6] = test system: Cell membrane; assay: Membrano-lytic effect in cytoplasmic membrane of Escherichia coli ATCC BAA-2452 assessed as disruption by measuring propidium iodide fluorescence incubated for 1 hr by FACscan flow cytometer analysis; settings: DDE = dose-dependent effect
[7] = test system: HepaRG; assay: Cytotoxicity against human HPRGC10 assessed as cell viability measured after 24 hrs by microplate spectrophotometer analysis; assay type: functional, cell-based; settings: dose <= 250.0 µg/ml, DDE = dose-dependent effect
[8] = test system: Staphylococcus aureus; assay: Bactericidal activity against methicillin resistant Staphylococcus aureus ATCC BAA-1556 assessed as time required for complete reduction of bacterial growth at MIC by counting formed colonies; assay type: functional
[9] = Proteolytic stability in human plasma at 100 uM incubated for 24 hrs by Q-TOF LC/MS analysis relative to control; assay type: ADME, cell-free; settings: read-out: Stability
[10] = as §1; assay type: toxicity, cell-based, Erythrocyte; settings: human red blood cells (erythrocytes)
[11] = test system: Lipid bilayer; assay: Membrano-lytic effect in mammalian membrane mimic DOPC/cholesterol (10:1) large unilamellar vesicles assessed as calcein leakage measured at 50 microg/ml measured upto 100 mins for every 10 mins by multimode microplate reader assay; assay type: cell membranes; settings: dose 50.0 µg/ml
[12] = test system: Staphylococcus aureus; assay: Bactericidal activity against methicillin resistant Staphylococcus aureus ATCC BAA-1556 assessed as time required for complete reduction of bacterial growth at 4 times MIC by counting formed colonies; assay type: functional
[13] = Proteolytic stability in human plasma at 100 uM incubated for 30 mins by Q-TOF LC/MS analysis relative to control; assay type: ADME, cell-free; settings: read-out: Stability
[14] = test system: HEK293; assay: Cytotoxicity against HEK293 assessed as cell viability measured after 24 hrs by microplate spectrophotometer analysis; assay type: toxicity, cell-based; settings: human, hek293, 24 h, DDE = dose-dependent effect, dose < 250 µg/ml
[15] = test system: Escherichia coli; assay: Bactericidal activity against Escherichia coli ATCC BAA-2452 assessed as time required for complete reduction of bacterial growth at MIC by counting formed colonies; assay type: functional
[16] = test system: Lipid bilayer; assay: Membrano-lytic effect in bacterial inner membrane mimic DOPC/DOPG (7:3) large unilamellar vesicles assessed as calcein leakage measured upto 100 mins for every 10 mins by multimode microplate reader assay; assay type: cell membranes; settings: dose 5-50 µg/ml, DDE = dose-dependent effect
[17] = test system: Lipid bilayer; assay: Induction of membrane disruption in bacterial inner membrane mimic DOPC/DOPG (7:3) large unilamellar vesicles assessed as decrease in particle size of liposome at 1:1 compound to lipid ratio measured after 24 hrs by dynamic light scattering analysis; assay type: cell membranes
[18] = test system: MRC5; assay: Cytotoxicity against human MRC-5 assessed as cell viability measured after 24 hrs by microplate spectrophotometer analysis; assay type: toxicity, cell-based; settings: mrc5, 24 h, DDE = dose-dependent effect, dose < 250 µg/ml
[19] = test system: Cell membrane; assay: Membrano-lytic effect in cytoplasmic membrane of methicillin resistant Staphylococcus aureus ATCC BAA-1556 assessed as disruption by measuring propidium iodide fluorescence incubated for 1 hr by FACscan flow cytometer analysis; settings: DDE = dose-dependent effect
[20] = test system: Cell membrane; assay: Membrano-lytic effect in cytoplasmic membrane of methicillin resistant Staphylococcus aureus ATCC BAA-1556 assessed as disruption by measuring propidium iodide fluorescence at MIC incubated for 1 hr by FACscan flow cytometer analysis
[21] = test system: Escherichia coli; assay: Bactericidal activity against Escherichia coli ATCC BAA-2452 assessed as time required for complete reduction of bacterial growth at 4 times MIC by counting formed colonies; assay type: functional
[22] = Cytotoxicity against HEK293 assessed as cell viability at 250 ug/ml incubated for 24 hrs by microplate spectrophotometer analysis method relative to control; assay type: toxicity, cell-based; settings: human, HEK293 cells, at 250 µg/mL, read-out: Activity
[23] = test system: HepaRG; assay: Cytotoxicity against human HPRGC10 assessed as cell viability at 250 ug/ml incubated for 24 hrs by microplate spectrophotometer analysis method relative to control; assay type: functional; settings: read-out: Activity
[24] = test system: MRC5; assay: Cytotoxicity against human MRC-5 assessed as cell viability at 250 ug/ml incubated for 24 hrs by microplate spectrophotometer analysis method; assay type: toxicity, cell-based; settings: mrc5, 24 h, dose 250 µg/ml
[25] = test system: Staphylococcus aureus; assay: Antibacterial activity against methicillin resistant Staphylococcus aureus ATCC BAA-1556 after 24 hrs in presence of 1 mM of by microtiter plate method; assay type: functional
[26] = test system: Escherichia coli; assay: Bactericidal activity against Escherichia coli ATCC BAA-2452 assessed as reduction of bacterial growth at MIC by counting formed colonies; assay type: functional, organism-based; settings: time <= 4.0 hrs, TDE = time-dependent effect
[27] = test system: Streptococcus pneumoniae; assay: Antibacterial activity against multidrug resistant […] ATCC 700677 incubated for 24 hrs by microtiter plate method; assay type: functional
[28] = test system: Enterococcus faecalis; assay: Antibacterial activity against vancomycin-resistant Enterococcus faecalis ATCC 51575 incubated for 24 hrs by microtiter plate method; assay type: functional
[29] = test system: Streptococcus pneumoniae; assay: Antibacterial activity against […] ATCC 49619 incubated for 24 hrs by microtiter plate method; assay type: functional
[30] = test system: Staphylococcus aureus; assay: Antibacterial activity against methicillin resistant Staphylococcus aureus ATCC BAA-1556 after 24 hrs in presence of 4.5 mM of KCl by microtiter plate method; assay type: functional
[31] = test system: Enterococcus faecium; assay: Antibacterial activity against vancomycin-resistant Enterococcus faecium ATCC 700221 incubated for 24 hrs by microtiter plate method; assay type: functional
[32] = test system: Staphylococcus aureus; assay: Antibacterial activity against methicillin resistant Staphylococcus aureus ATCC BAA-1556 after 24 hrs in presence of 2 mM of CaCl2 by microtiter plate method; assay type: functional
[33] = test system: Staphylococcus aureus; assay: Bactericidal activity against methicillin resistant Staphylococcus aureus ATCC BAA-1556 assessed as reduction of bacterial growth at 4 times MIC by counting formed colonies; assay type: functional, organism-based; settings: time <= 4.0 hrs, TDE = time-dependent effect
[34] = test system: Enterococcus faecium; assay: Antibacterial activity against Enterococcus faecium ATCC 27270 incubated for 24 hrs by microtiter plate method; assay type: functional
[35] = test system: Enterococcus faecalis; assay: Antibacterial activity against Enterococcus faecalis ATCC 29212 incubated for 24 hrs by microtiter plate method; assay type: functional
[36] = test system: Staphylococcus aureus; assay: Bactericidal activity against methicillin resistant Staphylococcus aureus ATCC BAA-1556 assessed as reduction of bacterial growth at MIC by counting formed colonies; assay type: functional, organism-based; settings: time <= 4.0 hrs, TDE = time-dependent effect
[37] = test system: Staphylococcus aureus; assay: Antibacterial activity against methicillin resistant Staphylococcus aureus ATCC BAA-1556 after 24 hrs in presence of 150 mM of NaCl by microtiter plate method; assay type: functional
[38] = test system: Staphylococcus aureus; assay: Antibacterial activity against methicillin resistant Staphylococcus aureus ATCC BAA-1556 after 24 hrs in presence of fetal bovine serum by microtiter plate method; assay type: functional
[39] = test system: Lipid bilayer; assay: Membrano-lytic effect in bacterial inner membrane mimic DOPC/DOPG (7:3) large unilamellar vesicles assessed as calcein leakage measured at 50 microg/ml, incubated for 100 mins by multimode microplate reader assay; assay type: cell membranes; settings: dose 50.0 µg/ml
[40] = test system: Bacillus subtilis; assay: Antibacterial activity against Bacillus subtilis ATCC 6633 incubated for 24 hrs by microtiter plate method; assay type: functional
[41] = test system: Staphylococcus aureus; assay: Antibacterial activity against methicillin resistant Staphylococcus aureus ATCC BAA-1556 after 24 hrs in presence of 6 mM of NH4Cl by microtiter plate method; assay type: functional
[42] = test system: Staphylococcus aureus; assay: Antibacterial activity against methicillin resistant Staphylococcus aureus ATCC BAA-1556 incubated for 24 hrs; assay type: functional
[43] = test system: Escherichia coli; assay: Bactericidal activity against Escherichia coli ATCC BAA-2452 assessed as reduction of bacterial growth at 4 times MIC by counting formed colonies; assay type: functional, organism-based; settings: time <= 4.0 hrs, TDE = time-dependent effect
[44] = test system: Bacillus cereus; assay: Antibacterial activity against Bacillus cereus ATCC 13061 incubated for 24 hrs by microtiter plate method; assay type: functional
[45] = Staphylococcus aureus, ATCC 29213, read-out: MIC
[46] = Staphylococcus aureus, ATCC BAA-1556, 24 h, read-out: MIC
[47] = Pseudomonas aeruginosa, ATCC 27883, 24 h, read-out: MIC

Compound: N=C(N)NCCC[C@@H]1NC(=O)[C@H](CCCNC(=N)N)NC(=O)[C@H](Cc2ccc3ccccc3c2)NC(=O)[C@H](Cc2ccc3ccccc3c2)NC(=O)[C@H](CCCNC(=N)N)NC(=O)[C@H](CCCNC(=N)N)NC(=O)[C@H](Cc2ccc3ccccc3c2)NC1=O (stereo in doubt; 19C)
- MIC ([1]; 24 h): 50 µg/mL (≈ 41.1 µM)
- HC50 [2]: 110 µg/mL
- MIC [3]: 6.2 µg/mL (≈ 5.1 µM)
- MIC [4]: 6.2 µg/mL (≈ 5.1 µM)
- MIC ([5]; 24 h): 50 µg/mL (≈ 41.1 µM)

Compound: N=C(N)NCCC[C@H](NC(=O)[C@H](CCCNC(=N)N)NC(=O)[C@@H](N)CCCNC(=N)N)C(=O)N[C@@H](CCCNC(=N)N)C(=O)N[C@H](C(=O)N[C@H](C(=O)N[C@H](C(=O)O)C(c1ccccc1)c1ccccc1)C(c1ccccc1)c1ccccc1)C(c1ccccc1)c1ccccc1 (H-RRRR[Dip][Dip][Dip]-OH)
- Activity [6]: Dde
- Activity [7]: Dde
- MIC ([1]; Escherichia coli, ATCC 25922, 24 h, read-out: MIC): 12.5 µg/mL (≈ 9.52 µM)
- Time [8]: 3 h
- remaining at 24 h, 100 µM [9]: 21%
- HC50 at 2 h [10]: 145 µg/mL
- Activity [11]: 8%
- MIC [3, 45]: 6.2 µg/mL (≈ 4.72 µM)
- Time [12]: 2 h
- remaining at 0.5 h, 100 µM [13]: 69%
- Activity [14]: Dde
- Time [15]: 4 h
- Activity [16]: Dde
- MIC [4, 46]: 6.2 µg/mL (≈ 4.72 µM)
- Activity [17]: Active
- Activity [18]: Dde
- MIC [5, 47]: 12.5 µg/mL (≈ 9.52 µM)
- Activity [19]: Dde
- Activity [20]: 35%
- Time [21]: 2.5 h

Compound: N=C(N)NCCC[C@H](NC(=O)[C@H](CCCNC(=N)N)NC(=O)[C@H](CCCNC(=N)N)NC(=O)[C@@H](N)CCCNC(=N)N)C(=O)N[C@@H](Cc1ccc2ccccc2c1)C(=O)N[C@@H](Cc1ccc2ccccc2c1)C(=O)N[C@@H](Cc1ccc2ccccc2c1)C(=O)O (H-RRRR[2Nal][2Nal][2Nal]-OH)
- Activity [6]: Dde
- Time [8]: 3 h
- remaining at 24 h, 100 µM [9]: 32%
- viability at 24 h, 250 ug/ml [22]: 69%
- viability at 250 µg/mL [23]: 47%
- HC50 at 2 h [10]: 130 µg/mL
- Activity [11]: 6%
- MIC [3, 45]: 6.2 µg/mL (≈ 5.02 µM)
- Time [12]: 2 h
- remaining at 0.5 h, 100 µM [13]: 62%
- Time [15]: 4 h
- Activity [24]: Non-Toxic
- Activity [16]: Dde
- MIC [4, 46]: 6.2 µg/mL (≈ 5.02 µM)
- Activity [17]: Active
- MIC [5, 47]: 25 µg/mL (≈ 20.3 µM)
- Activity [19]: Dde
- Activity [20]: 35%
- Time [21]: 2.5 h

Compound: CCCCCCCCCC(=O)N[C@@H](Cc1c[nH]c2ccccc12)C(=O)N[C@H](CC(N)=O)C(=O)N[C@@H](CC(=O)O)C(=O)N[C@@H]1C(=O)NCC(=O)N[C@@H](CCCN)C(=O)N[C@@H](CC(=O)O)C(=O)N[C@H](C)C(=O)N[C@@H](CC(=O)O)C(=O)NCC(=O)N[C@H](CO)C(=O)N[C@@H]([C@H](C)CC(=O)O)C(=O)N[C@@H](CC(=O)c2ccccc2N)C(=O)O[C@@H]1C
- MIC [25]: 3.1 µg/mL
- Activity [26]: Tde
- MIC [27]: 12.5 µg/mL (≈ 7.71 µM)
- Activity [8]: Active
- MIC [28]: 12.5 µg/mL (≈ 7.71 µM)
- MIC [29]: 12.5 µg/mL (≈ 7.71 µM)
- MIC [30]: 1.5 µg/mL
- Activity [11]: 5%
- MIC [31]: 6.25 µg/mL (≈ 3.86 µM)
- MIC [3, 45]: 0.7 µg/mL (≈ 0.432 µM)
- MIC [32]: 3.1 µg/mL
- Activity [12]: Active
- Activity [33]: Tde
- MIC [34]: 1.5 µg/mL (≈ 0.926 µM)
- MIC [35]: 6.25 µg/mL (≈ 3.86 µM)
- Activity [36]: Tde
- MIC [37]: 0.7 µg/mL
- MIC [38]: 3.1 µg/mL
- Activity [16]: Dde
- MIC [4, 46]: 1.5 µg/mL (≈ 0.926 µM)
- Activity [39]: 27%
- MIC [40]: 0.7 µg/mL (≈ 0.432 µM)
- MIC [41]: 1.5 µg/mL
- MBC [42]: 6.2 µg/mL (≈ 3.83 µM)
- Activity [43]: Tde
- MIC [44]: 1.5 µg/mL (≈ 0.926 µM)
